Reference: patent US9745360B2 (Sanofi, priority 2012, dated 2017)
*1 amine or outer side, *2 acyl side, *3 side chain or, on linkers, in order; H or OH if unused. Where a SMILES comes first, the peptide text is derived from it. Side-chain parts run from the residue outwards. [ ]: non-standard residue; d: D form. The star is where a group is joined. γGlu = O=C(O)[C@H](CCC(=O)[*:2])N[*:1]; Palmitoyl = CCCCCCCCCCCCCCCC(=O)*; αMeK = C[C@](N)(CCCCN)C(=O)O; Aib = CC(C)(N)C(=O)O

Columns and labels:
[1] = biological target: T1, human GLP-1 receptor (hGLP-1 R) (Homo sapiens, UniProt P43220); assay: cAMP response (HTRF) of HEK-293 cells stably expressing human GLP-1 receptor; assay type: cell-based; details: Table 7; cAMP formation
T1 construct: expressed in transfected cells
Method: (§1) cAMP content of cells was determined using a kit from Cisbio Corp. (cat. no. 62AM4PEC) based on HTRF (Homogenous Time Resolved Fluorescence). For preparation, cells were split into T175 culture flasks and grown overnight to near confluency in medium (DMEM/10% FBS). Medium was then removed and cells washed with PBS lacking calcium and magnesium, followed by proteinase treatment with accutase (Sigma-Aldrich cat. no. A6964). Detached cells were washed and resuspended in assay buffer (1×HBSS; 20 mM HEPES, 0.1% BSA, 2 mM IBMX) and cellular density determined. They were then diluted to 400000 cells/ml and 25 μl-aliquots dispensed into the wells of 96-well plates. For measurement, 25 μl of test compound in assay buffer was added to the wells, followed by incubation for 30 minutes at room temperature.

[2] = biological target: T2, human GIP receptor (hGIP R) (Homo sapiens, UniProt P48546); assay: cAMP response (HTRF) of HEK-293 cells stably expressing human GIP receptor; assay type: cell-based; details: Table 7; cAMP formation
T2 construct: expressed in transfected cells
T2 sequence (P48546 22-466): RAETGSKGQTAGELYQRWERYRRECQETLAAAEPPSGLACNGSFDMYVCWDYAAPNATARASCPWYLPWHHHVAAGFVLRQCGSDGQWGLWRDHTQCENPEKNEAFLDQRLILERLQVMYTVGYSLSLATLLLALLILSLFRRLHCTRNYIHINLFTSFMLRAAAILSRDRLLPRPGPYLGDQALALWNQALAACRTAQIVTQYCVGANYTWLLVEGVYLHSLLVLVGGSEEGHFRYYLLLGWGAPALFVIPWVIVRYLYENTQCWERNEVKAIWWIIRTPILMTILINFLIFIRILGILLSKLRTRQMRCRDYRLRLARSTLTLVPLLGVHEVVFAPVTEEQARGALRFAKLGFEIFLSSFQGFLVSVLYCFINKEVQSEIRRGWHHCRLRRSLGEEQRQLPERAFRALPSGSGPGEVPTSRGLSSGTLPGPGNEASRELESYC
Method: as §1

[3] = system: female diabetic dbdb-mice; assay: 4 weeks of treatment: glucose, HbA1c and oral glucose tolerance in female diabetic dbdb-mice (method 4); assay type: in vivo; details: 3 and 10 μg/kg s.c. once daily
Method: 8 week old, female diabetic dbdb-mice of mean non-fasted glucose value of 14.5 mmol/l and a body weight of 37-40 g were used. Mice were individually marked and were adapted to housing conditions for at least one week. 7 days prior to study start, baseline values for non-fasted glucose and HbA1c were determined, 5 days prior to study start, mice were assigned to groups and cages (5 mice per cage, 10 per group) according to their HbA1c values to ensure even distribution of lower and higher values between groups (stratification).
Mice were treated for 4 weeks, by once daily subcutaneous administration 3 hours prior to the dark phase (6 pm to 6 am). Blood samples from a tail tip incision were obtained for HbA1c on study day 21 and oral glucose tolerance was assessed in the 4th week. Oral glucose tolerance test was done in the morning without prior extra compound administration to majorly assess the effect of chronic treatment and less of acute compound administration. Mice were fasted for 4 hours prior to oral glucose administration (2 g/kg, t=0 min). Blood samples were drawn prior to glucose administration and at 15, 30, 60, 90, 120, and 180 min thereafter. Feed was returned after the last blood sampling. Results are represented as change from baseline, glucose in mmol/l and HbA1c in %.
Statistical analyses are performed with Everstat Version 6.0 based on SAS by 1-way-ANOVA, followed by Dunnett's post-hoc test against vehicle-control. Differences are considered statistically significant at the p<0.05 level.
Female dbdb-mice, received 3 and 10 μg/kg of SEQ ID NO: 11 or phosphate buffered saline (vehicle control) once daily, subcutaneously over four weeks. […] (FIG. 3).

T1 sequence (P43220 24-463): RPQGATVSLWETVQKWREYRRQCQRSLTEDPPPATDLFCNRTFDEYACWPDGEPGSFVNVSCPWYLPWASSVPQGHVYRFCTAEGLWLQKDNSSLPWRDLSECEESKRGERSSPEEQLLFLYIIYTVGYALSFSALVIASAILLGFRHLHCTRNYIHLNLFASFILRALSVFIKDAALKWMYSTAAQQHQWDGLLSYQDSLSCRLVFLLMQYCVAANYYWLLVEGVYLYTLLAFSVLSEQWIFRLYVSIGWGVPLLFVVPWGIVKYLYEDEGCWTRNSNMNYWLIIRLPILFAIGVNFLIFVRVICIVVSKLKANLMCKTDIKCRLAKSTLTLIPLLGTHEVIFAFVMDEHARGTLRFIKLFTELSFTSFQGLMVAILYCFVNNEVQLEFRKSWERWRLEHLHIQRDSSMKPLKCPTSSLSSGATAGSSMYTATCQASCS

With `CCCCCCCCCCCCCCCC(=O)N[C@@H](CCC(=O)NCCCC[C@H](NC(=O)[C@H](CCC(N)=O)NC(=O)[C@@H](NC(=O)[C@H](CO)NC(=O)[C@H](CC(C)C)NC(=O)[C@H](CC(=O)O)NC(=O)[C@H](CO)NC(=O)[C@@H](NC(=O)[C@H](Cc1ccccc1)NC(=O)[C@@H](NC(=O)CNC(=O)[C@H](CCC(=O)O)NC(=O)C(C)(C)NC(=O)[C@@H](N)Cc1ccc(O)cc1)[C@@H](C)O)[C@@H](C)O)[C@@H](C)CC)C(=O)N[C@@H](CCC(=O)O)C(=O)N[C@@H](CCC(=O)O)C(=O)N[C@@H](CCCNC(=N)N)C(=O)N[C@@H](C)C(=O)N[C@@H](C)C(=O)N[C@@](C)(CCCCN)C(=O)N[C@@H](CCC(=O)O)C(=O)N[C@@H](Cc1ccccc1)C(=O)N[C@H](C(=O)N[C@@H](CCC(=O)O)C(=O)N[C@@H](Cc1c[nH]c2ccccc12)C(=O)N[C@@H](CC(C)C)C(=O)N[C@@H](CCCCN)C(=O)N[C@@H](CC(N)=O)C(=O)N[C@H](C(=O)NCC(=O)N1CCC[C@H]1C(=O)N[C@@H](CO)C(=O)N[C@@H](CO)C(=O)NCC(=O)N[C@@H](C)C(=O)N1CCC[C@H]1C(=O)N1CCC[C@H]1C(=O)N1CCC[C@H]1C(=O)N[C@@H](CO)C(N)=O)[C@@H](C)O)[C@@H](C)CC)C(=O)O` [SEQ ID NO: 11, Y-Aib-E-G-T-F-T-S-D-L-S-I-Q-K(γE-x53)-E-E-R-A-A-(S)MeLys-E-F-I-E-W-L-K-N-T-G-P-S-S-G-A-P-P-P-S-NH2] (H-Y[Aib]EGTFTSDLSIQK([γGlu-Palmitoyl])EERAA[αMeK]EFIEWLKNTGPSSGAPPPS-NH2) the EC50 [1] was 5.1 pM, the EC50 [2] was 7 pM and the oral glucose tolerance ([3]; 4th week, 2 g/kg oral glucose) was “improved oral glucose tolerance”. For the same compound, the “non-fasted glucose compared to vehicle control” value ([3]; four weeks) was “reduced statistically significant”, the “HbA1c compared to vehicle control” value ([3]; four weeks, p<0.05) was “prevented an increase of HbA1c in a statistical significant manner” and the “reduction of AUC under the glucose curve compared to vehicle control” value ([3]; oral glucose tolerance test, p<0.05) was “reached statistical significance”.
